# US7868005B2, “Pyrazinyl substituted piperazine-piperidines with CXCR3 antagonist activity” (Schering Corporation, priority 2005, dated 2011)
# Target: T1, human CXCR3 (N-delta 4) (Homo sapiens, UniProt P49682)
# T1 construct: CD8 leader (N); Flag; expressed in transfected cells; membranes prepared
# T1 sequence (P49682 5-368 limits assumed): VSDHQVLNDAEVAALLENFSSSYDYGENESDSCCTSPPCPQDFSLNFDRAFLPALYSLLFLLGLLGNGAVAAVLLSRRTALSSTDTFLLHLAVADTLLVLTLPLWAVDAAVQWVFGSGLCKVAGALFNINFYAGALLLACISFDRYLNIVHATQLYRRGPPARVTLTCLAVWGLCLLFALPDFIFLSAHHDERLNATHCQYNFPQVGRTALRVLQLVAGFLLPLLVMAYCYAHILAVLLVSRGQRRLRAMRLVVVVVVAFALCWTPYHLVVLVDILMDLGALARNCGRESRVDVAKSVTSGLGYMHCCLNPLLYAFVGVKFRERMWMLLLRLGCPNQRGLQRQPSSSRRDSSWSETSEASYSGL
# Assay: Human CXCR3 (N-delta 4) Scintillation Proximity Assay (SPA), [125I] IP-10 binding to Ba/F3-hCXCR3 membranes
# Settings: IC50 rating, Table 1; read-out: IC50
row,Structure (SMILES),IC50
1,CC[C@H]1CN(c2nc(N)c(C(=O)NCCO)nc2Cl)CCN1C1CCN([C@H](C(=O)O)c2ccc(Cl)cc2)CC1 [compound 203],> 100 nM
2,CC[C@H]1CN(c2nc(N)c(C(=O)NCCO)nc2Cl)CCN1C1CCN(C(Cc2nn[nH]n2)c2ccc(Cl)cc2)CC1 (stereo partly shown) [compound 204],> 100 nM
3,CC[C@H]1CN(c2nc(N)c(C(=O)NCCO)nc2Cl)CCN1C1CCN(Cc2ccc(N3CCOCC3)c(F)c2F)CC1 [compound 205],> 100 nM
4,CC[C@H]1CN(c2nc(N)c(C(=O)NCCO)nc2Cl)CCN1C1CCN(C(C(=O)OC)c2ccc(Cl)cc2OC)CC1 (stereo partly shown) [compound 206],> 100 nM
5,CC[C@H]1CN(c2nc(N)c(C(=O)NCCO)nc2Cl)CCN1C1CCN(C(c2ccc(Cl)cc2)c2nccs2)CC1 (stereo partly shown) [compound 207],> 100 nM
6,CC[C@H]1CN(c2nc(N)c(C(=O)NCc3nccs3)nc2Cl)CCN1C1CCN(Cc2ccc(C#N)cc2)CC1 [compound 208],> 100 nM
7,CC[C@H]1CN(c2nc(N)c(C(=O)N3CC[C@H](NS(C)(=O)=O)C3)nc2Cl)CCN1C1CCN(Cc2ccc(Cl)cc2)CC1 [compound 209],> 100 nM
8,CC[C@H]1CN(c2nc(N)c(C(=O)N[C@@H]3CCCNC3=O)nc2Cl)CCN1C1CCN(Cc2ccc(C#N)cc2)CC1 [compound 210],> 100 nM
9,CC[C@H]1CN(c2nc(N)c(C(=O)N[C@H]3CCN(C)C3=O)nc2Cl)CCN1C1CCN(Cc2ccc(C#N)cc2)CC1 [compound 211],> 100 nM
10,CC[C@H]1CN(c2nc(N)c(C(=O)NCc3cc(O)no3)nc2Cl)CCN1C1CCN(Cc2ccc(Cl)cc2)CC1 [compound 212],> 100 nM
11,CC[C@H]1CN(c2nc(N)c(C(=O)NC[C@@H](C)O)nc2Cl)CCN1C1CCN(Cc2ccc(Cl)cc2CCNC(C)=O)CC1 [compound 224],25 to 100 nM
12,CC[C@H]1CN(c2nc(N)c(C(=O)NCCCNS(=O)(=O)C(F)(F)F)nc2Cl)CCN1C1CCN(Cc2ccc(C#N)cc2)CC1 [compound 225],> 100 nM
13,CC[C@H]1CN(c2nc(N)c(C(=O)NCCCNS(C)(=O)=O)nc2Cl)CCN1C1CCN(Cc2ccc(C#N)cc2)CC1 [compound 226],> 100 nM
14,CC[C@H]1CN(c2nc(N)c(C(=O)NCCCO)nc2Cl)CCN1C1CCN(Cc2ccc(Cl)cc2)CC1 [compound 227],25 to 100 nM
15,CC[C@H]1CN(c2nc(N)c(C(=O)NCCNC(N)=O)nc2Cl)CCN1C1CCN(C(CO)c2ccc(C#N)cc2)CC1 (stereo partly shown) [compound 232],25 to 100 nM
16,CC[C@H]1CN(c2nc(N)c(C(=O)NCCN)nc2Cl)CCN1C1CCN(Cc2ccc(Cl)cc2C#N)CC1 [compound 234],25 to 100 nM
17,CC[C@H]1CN(c2nc(N)c(C(=O)NCCNC(=O)OC(C)(C)C)nc2Cl)CCN1C1CCN(Cc2ccc(Cl)cc2C#N)CC1 [compound 235],> 100 nM
18,CC[C@H]1CN(c2nc(N)c(C(=O)NCCN/C(N)=N/C#N)nc2Cl)CCN1C1CCN(Cc2ccc(Cl)cc2C#N)CC1 [compound 236],> 100 nM
19,CC[C@H]1CN(c2nc(N)c(C(=O)NCCNS(=O)(=O)c3cn(C)cn3)nc2Cl)CCN1C1CCN(Cc2ccc(C#N)cc2)CC1 [compound 237],> 100 nM
20,CC[C@H]1CN(c2nc(N)c(C(=O)NCCNS(=O)(=O)CC)nc2Cl)CCN1C1CCN(Cc2ccc(C#N)cc2)CC1 [compound 242],25 to 100 nM
21,CC[C@H]1CN(c2nc(N)c(C(=O)NCCNS(C)(=O)=O)nc2Cl)CCN1C1CCN(Cc2ccc(C#N)cc2)CC1 [compound 247],25 to 100 nM
22,CC[C@H]1CN(c2nc(N)c(C(=O)NCCNS(C)(=O)=O)nc2Cl)CCN1C1CCN(Cc2ccc(Cl)cc2N2CC[C@@H](O)C2)CC1 [compound 248],25 to 100 nM
23,CC[C@H]1CN(c2nc(N)c(C(=O)NCCNS(C)(=O)=O)nc2Cl)CCN1C1CCN([C@H](CO)c2ccc(Cl)cc2)CC1 [compound 249],25 to 100 nM
24,CC[C@H]1CN(c2nc(N)c(C(=O)NCCNS(C)(=O)=O)nc2Cl)CCN1C1CCN([C@@H](C(=O)OC)c2ccc(Cl)cc2)CC1 [compound 250],25 to 100 nM
25,CC[C@H]1CN(c2nc(N)c(C(=O)NCCNS(C)(=O)=O)nc2Cl)CCN1C1CCN([C@H](C(=O)OC)c2ccc(Cl)cc2)CC1 [compound 251],> 100 nM
26,CC[C@H]1CN(c2nc(N)c(C(=O)NCCNS(C)(=O)=O)nc2Cl)CCN1C1CCN(Cc2ccc(F)c(F)c2N2CC[C@@H](O)C2)CC1 [compound 252],25 to 100 nM
27,CC[C@H]1CN(c2nc(N)c(C(=O)NCCNS(C)(=O)=O)nc2Cl)CCN1C1CCN(Cc2ccc(Cl)cc2C#N)CC1 [compound 253],25 to 100 nM
28,CC[C@H]1CN(c2nc(N)c(C(=O)NCCNS(C)(=O)=O)nc2Cl)CCN1C1CCN(Cc2ccc(Cl)cc2C(=N)NC)CC1 [compound 254],25 to 100 nM
29,CC[C@H]1CN(c2nc(N)c(C(=O)NCCNS(=O)(=O)N(C)C)nc2Cl)CCN1C1CCN(Cc2ccc(C#N)cc2)CC1 [compound 255],25 to 100 nM
30,CC[C@H]1CN(c2nc(N)c(C(=O)NCCNS(N)(=O)=O)nc2Cl)CCN1C1CCN([C@@H](C(=O)OC)c2ccc(Cl)cc2)CC1 [compound 261],25 to 100 nM

# Continued, values first:
row,IC50,Structure (SMILES)
1,25 to 100 nM,CC[C@H]1CN(c2nc(N)c(C(=O)NCC(N)=O)nc2Cl)CCN1C1CCN(Cc2ccc(Cl)cc2)CC1 [compound 213]
2,< 25 nM,CC[C@H]1CN(c2nc(N)c(C(=O)NCC(=O)OC)nc2Cl)CCN1C1CCN(Cc2ccc(Cl)cc2)CC1 [compound 214]
3,< 25 nM,CC[C@H]1CN(c2nc(N)c(C(=O)NCC(F)(F)F)nc2Cl)CCN1C1CCN(Cc2ccc(Cl)cc2)CC1 [compound 216]
4,< 25 nM,CC[C@H]1CN(c2nc(N)c(C(=O)NCC(C)O)nc2Cl)CCN1C1CCN(Cc2ccc(Cl)cc2)CC1 (stereo partly shown) [compound 217]
5,< 25 nM,CC[C@H]1CN(c2nc(N)c(C(=O)NC[C@@H](C)O)nc2Cl)CCN1C1CCN(Cc2ccc(Cl)cc2[C@H](O)C(N)=O)CC1 [compound 218]
6,< 25 nM,CC[C@H]1CN(c2nc(N)c(C(=O)NC[C@@H](C)O)nc2Cl)CCN1C1CCN(Cc2ccc(Cl)cc2C(O)C(=O)OC)CC1 (stereo partly shown) [compound 219]
7,< 25 nM,CC[C@H]1CN(c2nc(N)c(C(=O)NC[C@@H](C)O)nc2Cl)CCN1C1CCN(Cc2ccc(Cl)cc2CC#N)CC1 [compound 220]
8,< 25 nM,CC[C@H]1CN(c2nc(N)c(C(=O)NC[C@@H](C)O)nc2Cl)CCN1C1CCN(Cc2ccc(C#N)cc2)CC1 [compound 221]
9,< 25 nM,CC[C@H]1CN(c2nc(N)c(C(=O)NC[C@@H](C)O)nc2Cl)CCN1C1CCN(Cc2ccc(Cl)cc2[C@@H](O)C(N)=O)CC1 [compound 222]
10,< 25 nM,CC[C@H]1CN(c2nc(N)c(C(=O)NC[C@@H](C)O)nc2Cl)CCN1C1CCN(Cc2ccc(Cl)cc2CCNS(C)(=O)=O)CC1 [compound 223]
11,< 25 nM,CC[C@H]1CN(c2nc(N)c(C(=O)NCCC#N)nc2Cl)CCN1C1CCN(Cc2ccc(C#N)cc2)CC1 [compound 228]
12,< 25 nM,CC[C@H]1CN(c2nc(N)c(C(=O)NCCNc3ncccn3)nc2Cl)CCN1C1CCN(Cc2ccc(Cl)cc2)CC1 [compound 229]
13,< 25 nM,CC[C@H]1CN(c2nc(N)c(C(=O)NCCNC(C)=O)nc2Cl)CCN1C1CCN(Cc2ccc(Cl)cc2)CC1 [compound 230]
14,< 25 nM,CC[C@H]1CN(c2nc(N)c(C(=O)NCCNC(N)=O)nc2Cl)CCN1C1CCN(C(CO)c2ccc(Cl)cc2)CC1 (stereo partly shown) [compound 231]
15,< 25 nM,CC[C@H]1CN(c2nc(N)c(C(=O)NCCN)nc2Cl)CCN1C1CCN(Cc2ccc(Cl)cc2)CC1 [compound 233]
16,< 25 nM,CC[C@H]1CN(c2nc(N)c(C(=O)NCCNS(=O)(=O)C(F)(F)F)nc2Cl)CCN1C1CCN(Cc2ccc(Cl)cc2)CC1 [compound 238]
17,< 25 nM,CC[C@H]1CN(c2nc(N)c(C(=O)NCCNS(=O)(=O)C(F)(F)F)nc2Cl)CCN1C1CCN(Cc2ccc(C#N)cc2)CC1 [compound 239]
18,< 25 nM,CC[C@H]1CN(c2nc(N)c(C(=O)NCCNS(=O)(=O)C(F)(F)F)nc2Cl)CCN1C1CCN(Cc2ccc(F)c(F)c2N2CC[C@@H](O)C2)CC1 [compound 240]
19,< 25 nM,CC[C@H]1CN(c2nc(N)c(C(=O)NCCNS(=O)(=O)C(F)(F)F)nc2Cl)CCN1C1CCN(Cc2ccc(Cl)cc2N2CC[C@@H](O)C2)CC1 [compound 241]
20,< 25 nM,CC[C@H]1CN(c2nc(N)c(C(=O)NCCNS(C)(=O)=O)nc2Cl)CCN1C1CCN(Cc2ccc(Cl)cc2C(=N)N)CC1 [compound 243]
21,< 25 nM,CC[C@H]1CN(c2nc(N)c(C(=O)NCCNS(C)(=O)=O)nc2Cl)CCN1C1CCN([C@@H](CO)c2ccc(Cl)cc2)CC1 [compound 244]
22,< 25 nM,CC[C@H]1CN(c2nc(N)c(C(=O)NCCNS(C)(=O)=O)nc2Cl)CCN1C1CCN(Cc2ccc(Cl)cc2)CC1 [compound 245]
23,< 25 nM,CCOC(=O)/N=C(\N)c1cc(Cl)ccc1CN1CCC(N2CCN(c3nc(N)c(C(=O)NCCNS(C)(=O)=O)nc3Cl)C[C@@H]2CC)CC1 [compound 246]
24,< 25 nM,CC[C@H]1CN(c2nc(NCc3ccc(F)c(F)c3)c(C(=O)NCCNS(N)(=O)=O)nc2Cl)CCN1C1CCN(Cc2ccc(F)c(F)c2)CC1 [compound 256]
25,< 25 nM,CC[C@H]1CN(c2nc(N)c(C(=O)NCCNS(N)(=O)=O)nc2Cl)CCN1C1CCN([C@@H](CO)c2ccc(Cl)cc2)CC1 [compound 257]
26,< 25 nM,CC[C@H]1CN(c2nc(N)c(C(=O)NCCNS(N)(=O)=O)nc2Cl)CCN1C1CCN(Cc2ccc(Cl)cc2C(=N)N)CC1 [compound 258]
27,< 25 nM,CC[C@H]1CN(c2nc(N)c(C(=O)NCCNS(N)(=O)=O)nc2Cl)CCN1C1CCN(C(CO)c2ccc(Cl)cc2)CC1 (stereo partly shown) [compound 259]
28,< 25 nM,CC[C@H]1CN(c2nc(N)c(C(=O)NCCNS(N)(=O)=O)nc2Cl)CCN1C1CCN(Cc2ccc(Cl)cc2C(=N)NC)CC1 [compound 260]
